Measured values taken from the NIST ThermoML archive (doi:10.1016/j.fluid.2004.11.021).

Test: xn = mol fraction of the nth substance listed
Details: Fluid (supercritical or subcritical phases)

CF [fluoromethane] + [N-]=[N+]=O
Other PVT measurement
Details	molar volume [m3/mol]
263.02 K, 2088.5 kPa, x2 = 0.6161	0.000766
263.03 K, 1936.1 kPa, x2 = 0.508	0.000863
267.98 K, 1999.2 kPa, x2 = 0.508	0.000863
268 K, 2048.2 kPa, x2 = 0.3047	0.00074
268 K, 2223.9 kPa, x2 = 0.6161	0.000766
272.89 K, 2060.3 kPa, x2 = 0.508	0.000863
272.98 K, 2295.8 kPa, x2 = 0.6161	0.000766
273.01 K, 2223.5 kPa, x2 = 0.3047	0.000741
273.05 K, 1878.4 kPa, x2 = 0.1467	0.000909
277.86 K, 2121 kPa, x2 = 0.508	0.000863
282.81 K, 2371.8 kPa, x2 = 0.3047	0.000741
282.83 K, 1994.7 kPa, x2 = 0.1467	0.000909
283.04 K, 2438 kPa, x2 = 0.6161	0.000767
287.8 K, 4359.8 kPa, x2 = 0.8263	0.000305
288.08 K, 2242.8 kPa, x2 = 0.508	0.000864
292.79 K, 2109.4 kPa, x2 = 0.1467	0.00091
292.93 K, 4761.6 kPa, x2 = 0.8263	0.000305
292.96 K, 2512.2 kPa, x2 = 0.3047	0.000741
293.07 K, 2574.6 kPa, x2 = 0.6161	0.000767
298.08 K, 2168.4 kPa, x2 = 0.1467	0.00091
298.09 K, 2358.5 kPa, x2 = 0.508	0.000864
298.11 K, 2642.6 kPa, x2 = 0.6161	0.000767
298.17 K, 2591.9 kPa, x2 = 0.3047	0.000741
302.97 K, 5179 kPa, x2 = 0.8263	0.000305
307.96 K, 5380.9 kPa, x2 = 0.8263	0.000305
308.05 K, 2279.3 kPa, x2 = 0.1467	0.00091
308.06 K, 2474.5 kPa, x2 = 0.508	0.000865
308.13 K, 2731.2 kPa, x2 = 0.3047	0.000742
308.15 K, 2774.9 kPa, x2 = 0.6161	0.000768
312.91 K, 5577.9 kPa, x2 = 0.8263	0.000305
318.05 K, 2388.7 kPa, x2 = 0.1467	0.000911
318.11 K, 2867.7 kPa, x2 = 0.3047	0.000742
318.12 K, 2588.2 kPa, x2 = 0.508	0.000865
318.12 K, 2904.6 kPa, x2 = 0.6161	0.000768
328.03 K, 2496.3 kPa, x2 = 0.1467	0.000911
328.09 K, 3033 kPa, x2 = 0.6161	0.000768
328.1 K, 3002.9 kPa, x2 = 0.3047	0.000742
328.11 K, 2699.9 kPa, x2 = 0.508	0.000865
338.08 K, 2810.2 kPa, x2 = 0.508	0.000866
338.08 K, 3160 kPa, x2 = 0.6161	0.000769
338.09 K, 2603.1 kPa, x2 = 0.1467	0.000912
338.09 K, 3135.8 kPa, x2 = 0.3047	0.000743
347.94 K, 2707 kPa, x2 = 0.1467	0.000912
348.05 K, 3285.8 kPa, x2 = 0.6161	0.000769
348.06 K, 2919.8 kPa, x2 = 0.508	0.000866
348.06 K, 3267 kPa, x2 = 0.3047	0.000743
354.94 K, 2779.9 kPa, x2 = 0.1467	0.000912
358.03 K, 3396.5 kPa, x2 = 0.3047	0.000743
358.03 K, 3410.5 kPa, x2 = 0.6161	0.000769
358.05 K, 3028.8 kPa, x2 = 0.508	0.000867

[N-]=[N+]=O [nitrous oxide] + FC(F)F
isochoric method
Details	molar volume [m3/mol]
253.03 K, 1464.8 kPa, x1 = 0.1116	0.001035
253.09 K, 1627.2 kPa, x1 = 0.4162	0.000978
258 K, 1541.9 kPa, x1 = 0.1116	0.001035
258.06 K, 1905.9 kPa, x1 = 0.563	0.000867
258.08 K, 1718.9 kPa, x1 = 0.4162	0.000978
258.09 K, 1832.3 kPa, x1 = 0.2888	0.000828
262.96 K, 1968.2 kPa, x1 = 0.563	0.000867
263.06 K, 1593.9 kPa, x1 = 0.1116	0.001035
263.06 K, 1774.4 kPa, x1 = 0.4162	0.000979
263.08 K, 1926.6 kPa, x1 = 0.2888	0.000829
267.94 K, 2030.3 kPa, x1 = 0.563	0.000867
268 K, 1644.1 kPa, x1 = 0.1116	0.001035
268.04 K, 1829.1 kPa, x1 = 0.4162	0.000979
268.04 K, 1991.7 kPa, x1 = 0.2888	0.000829
268.04 K, 2663.9 kPa, x1 = 0.6362	0.000591
272.9 K, 1693.3 kPa, x1 = 0.1116	0.001035
272.93 K, 2055.2 kPa, x1 = 0.2888	0.000829
272.95 K, 2091.7 kPa, x1 = 0.563	0.000867
273.02 K, 2765.9 kPa, x1 = 0.6362	0.000591
273.03 K, 1883 kPa, x1 = 0.4162	0.000979
282.83 K, 2180.4 kPa, x1 = 0.2888	0.000829
282.84 K, 1790.6 kPa, x1 = 0.1116	0.001036
283 K, 1988.8 kPa, x1 = 0.4162	0.000979
283 K, 2957.6 kPa, x1 = 0.6362	0.000591
283.02 K, 2213.7 kPa, x1 = 0.563	0.000868
292.93 K, 3143.3 kPa, x1 = 0.6362	0.000591
293.06 K, 1887.6 kPa, x1 = 0.1116	0.001036
293.07 K, 2332 kPa, x1 = 0.563	0.000868
293.08 K, 2094.2 kPa, x1 = 0.4162	0.00098
298.02 K, 3235.8 kPa, x1 = 0.6362	0.000591
298.05 K, 1934.6 kPa, x1 = 0.1116	0.001037
298.08 K, 2145.4 kPa, x1 = 0.4162	0.00098
298.09 K, 2390.3 kPa, x1 = 0.563	0.000868
298.1 K, 2367.2 kPa, x1 = 0.2888	0.00083
308.02 K, 2027.4 kPa, x1 = 0.1116	0.001037
308.05 K, 3416.1 kPa, x1 = 0.6362	0.000592
308.06 K, 2246.6 kPa, x1 = 0.4162	0.000981
308.08 K, 2486.6 kPa, x1 = 0.2888	0.00083
308.42 K, 2509 kPa, x1 = 0.563	0.000869
317.83 K, 2615.8 kPa, x1 = 0.563	0.000869
318.02 K, 2345.8 kPa, x1 = 0.4162	0.000981
318.02 K, 2603.8 kPa, x1 = 0.2888	0.000831
318.03 K, 3592.6 kPa, x1 = 0.6362	0.000592
318.11 K, 2119.5 kPa, x1 = 0.1116	0.001037
328.1 K, 2210.6 kPa, x1 = 0.1116	0.001038
328.1 K, 2731.1 kPa, x1 = 0.563	0.000869
328.11 K, 2445.5 kPa, x1 = 0.4162	0.000981
328.12 K, 3768.5 kPa, x1 = 0.6362	0.000592
328.13 K, 2721.6 kPa, x1 = 0.2888	0.000831
338.08 K, 2300.2 kPa, x1 = 0.1116	0.001038
338.08 K, 2543.3 kPa, x1 = 0.4162	0.000982
338.08 K, 2836.1 kPa, x1 = 0.2888	0.000831
338.09 K, 2842.1 kPa, x1 = 0.563	0.00087
338.09 K, 3939.9 kPa, x1 = 0.6362	0.000592
348.06 K, 2388.8 kPa, x1 = 0.1116	0.001039
348.06 K, 2949.9 kPa, x1 = 0.2888	0.000832
348.06 K, 2951.9 kPa, x1 = 0.563	0.00087
348.07 K, 2640.2 kPa, x1 = 0.4162	0.000982
348.07 K, 4110.3 kPa, x1 = 0.6362	0.000593
358.03 K, 2476.8 kPa, x1 = 0.1116	0.001039
358.03 K, 3062.3 kPa, x1 = 0.2888	0.000832
358.04 K, 2736.3 kPa, x1 = 0.4162	0.000983
358.05 K, 3061.1 kPa, x1 = 0.563	0.00087
358.05 K, 4278.2 kPa, x1 = 0.6362	0.000593

[N-]=[N+]=O [nitrous oxide] + FCF
Other PVT measurement
Details	molar volume [m3/mol]
283.32 K, 2978.6 kPa, x1 = 0.8042	0.000562
288.38 K, 3087.3 kPa, x1 = 0.8042	0.000562
293.46 K, 3188.3 kPa, x1 = 0.8042	0.000563
298.54 K, 2796 kPa, x1 = 0.5068	0.000644
298.6 K, 3286 kPa, x1 = 0.8042	0.000563
303.68 K, 2903.7 kPa, x1 = 0.5068	0.000644
303.68 K, 2988.3 kPa, x1 = 0.4207	0.000594
303.68 K, 3381.2 kPa, x1 = 0.8042	0.000563
308.76 K, 3475.8 kPa, x1 = 0.8042	0.000563
308.77 K, 2774.4 kPa, x1 = 0.2255	0.000631
308.77 K, 2991.7 kPa, x1 = 0.5068	0.000645
308.77 K, 3091.8 kPa, x1 = 0.4207	0.000594
313.85 K, 3190.6 kPa, x1 = 0.4207	0.000595
313.85 K, 3569.2 kPa, x1 = 0.8042	0.000563
313.86 K, 2875.7 kPa, x1 = 0.2255	0.000631
313.87 K, 3078.9 kPa, x1 = 0.5068	0.000645
318.94 K, 3288.2 kPa, x1 = 0.4207	0.000595
318.94 K, 3661.8 kPa, x1 = 0.8042	0.000563
318.95 K, 2971.2 kPa, x1 = 0.2255	0.000631
318.95 K, 3164.6 kPa, x1 = 0.5068	0.000645
324.03 K, 3384.5 kPa, x1 = 0.4207	0.000595
324.03 K, 3753.8 kPa, x1 = 0.8042	0.000563
324.04 K, 3064.8 kPa, x1 = 0.2255	0.000631
324.04 K, 3249.6 kPa, x1 = 0.5068	0.000645
329.13 K, 3157.2 kPa, x1 = 0.2255	0.000632
329.13 K, 3845.1 kPa, x1 = 0.8042	0.000563
329.14 K, 3334.1 kPa, x1 = 0.5068	0.000645
329.14 K, 3479.7 kPa, x1 = 0.4207	0.000595
334.22 K, 3248.1 kPa, x1 = 0.2255	0.000632
334.22 K, 3573.4 kPa, x1 = 0.4207	0.000595
334.23 K, 3417.4 kPa, x1 = 0.5068	0.000645
334.23 K, 3935.9 kPa, x1 = 0.8042	0.000564
339.33 K, 3338.3 kPa, x1 = 0.2255	0.000632
339.33 K, 3500 kPa, x1 = 0.5068	0.000645
339.34 K, 3666.5 kPa, x1 = 0.4207	0.000595
339.35 K, 4026.2 kPa, x1 = 0.8042	0.000564
344.43 K, 3581.9 kPa, x1 = 0.5068	0.000646
344.43 K, 3758.3 kPa, x1 = 0.4207	0.000595
344.43 K, 4115.4 kPa, x1 = 0.8042	0.000564
344.44 K, 3427.2 kPa, x1 = 0.2255	0.000632
353.6 K, 3922.3 kPa, x1 = 0.4207	0.000596
354.61 K, 3602.1 kPa, x1 = 0.2255	0.000632
354.62 K, 4293 kPa, x1 = 0.8042	0.000564
